From patent US9512407B2, “Cells and methods for obtaining them” (GENOME RESEARCH LIMITED, priority 2009, dated 2016)
“Also recorded” adds a separate entry of the source.

Legend:
[1] = tested on: Oct4 locus; assay: iPSC quality by Puro resistance and GFP expression from the Oct4 locus (flow cytometry); type: cell-based, mouse; settings: for quality of iPS cells, measured by FACS: agonist with four Yamanaka factors, up to 8 days
Procedure: (§1) ES cell pluripotency requires proper levels of Oct4 (Pou5f1) expression (32), and activation of Oct4 is known to be a crucial event in reprogramming (3). To monitor activation of the endogenous Oct4 locus in reprogramming and to allow unbiased assessment of iPSC quality, we made an Oct4 reporter mouse line where the IRES-Puro-GFP cassette was targeted to the 3′UTR of the Oct4 locus (FIG. 6B). The targeted ES cells were resistant to 2.0 μg/ml Puromycin (Puro) selection. These ES cells were not visibly green under fluorescent microscope but could be distinguished by flow cytometry (FIG. 6C). […] MEFs from the Oct4 reporter mice were thus used in all the MEF reprogramming experiments, and consequently, reprogramming and iPSC quality could be conveniently monitored and assessed by either Puro resistance or GFP expression in iPSCs.
Expression of the endogenous Oct4 is unstable in iPSCs reprogrammed by the four Yamanaka factors (11). […] Further analysis confirmed their partially reprogrammed status: low levels of endogenous pluripotency gene expression (FIG. 1E), and retention of substantial DNA methylation in the differentially methylated regions (DMRs) in the Nanog and Rex1 promoters (FIG. 1F). On the other hand, a small number of colonies were obtained which were resistant to 2.0 μg/ml Puro, and were similar to ES cells regarding pluripotency gene expression, demethylation at the Nanog and Rex1 promoters, and GFP expression (FIG. 1E-F and FIG. 6E). […] In subsequent experiments, we used resistance to 2.0 μg/ml Puro or GFP expression as surrogate criteria for pluripotency quality of mouse primary iPSCs reprogrammed from Oct4-Puro-GFP MEFs.
Mouse iPSCs growing in 96 well feeder plates were trypsinized and resuspended in M15. iPSCs were spun down at 1,000 rpm for 3 minutes, and the medium was removed by putting the plate upside down on tissue. iPSCs were resuspended in PBS and analyzed by Cytomics FC-500 (Beckman Coulter).
We cloned the four Yamanaka factors into the PB transposons separately where expression of each cDNA was controlled by the LTR of MSCV (PB-MSCV-cDNAs, FIG. 6c). These four transposons and the PB transposase (PBase) plasmid were subsequently transfected into Oct4-IRES-Puro-Egfp MEFs. iPS cell colonies resembling those of regular ES cells appeared in three weeks. Most iPS colonies survived 1.0 or 1.5 μg/ml Puro but very few were able to grow in 2.0 μg/ml Puro. […] RT-PCR and DMR sequencing confirmed that these iPS clones growing in 2.0 μg/mL Puro were more similar to regular ES cells than those clones selected by 1.0 or 1.5 μg/mL Puro in terms of pluripotent gene expression and DNA methylation at promoters of these genes (data not shown). […] We thus used 2.0 μg/mL or higher concentration of Puro in combination of flow cytometry to quantitatively evaluate iPS cell quality in the subsequent experiments.

[2] = tested on: Rex1-Puro-IRES-Egfp knock-in mouse ES cell line; assay: RA induced ES cell differentiation, Puro selection; type: cell-based; settings: all-trans retinoic acid; antagonist added or cDNA over-expressed
Source text: Insertion of this transposon into the mouse genome can either up-regulate genes near the insertion sites or disrupt them, depending on the structure of the insertion allele. To efficiently eliminate differentiated ES cells in the culture, we targeted the Puro-IRES-Egfp cassette to the Rex1 locus (FIG. 12b). Consequently, undifferentiated ES cells would be resistant to Puromycin (Puro) selection and GFP^+ in flow cytometry, while differentiated cells would be killed by Puro selection and become GFP^− due to rapid lose of Rex1 expression upon differentiation.
A library of mutant ES cells were differentiated with 1.0 μM all-trans retinoic acid (RA) for 4 days and subsequently selected with Puromycin (FIG. 12c). Several Pura^r ES cell clones were identified from independent mutant ES cell pools. Splinkrette PCR analysis identified PB integration sites in genes encoding Rarg, Pparg and Gclc. For Pparg, PB insertion caused over-expression of the entire protein coding sequences. In contrast, Rarg locus had four independent PB insertions, all found in intron 9 (the last intron) (FIG. 12d). These PB insertions caused truncation of Rarg which misses amino acids encoded by exon 10. […] This truncated Rarg likely functioned as a dominant negative form of wild type Rarg (Rarg-DN).
FIG. 12. […]

[3] = tested on: Oct4-IRES-Puro-Egfp MEFs; assay: Reprogramming of Oct4 reporter MEFs to iPSCs by PB transposition of Yamanaka factors (colony number); type: cell-based, mouse
Source text: To investigate the role of RA signalling in reprogramming, we cloned cDNAs of Oct4, Sox2, Klf4, cMyc, Rara and Rarg into a PB-MSCV vector where expression of the cDNAs was controlled by the MSCV LTR (FIG. 6A). Although exogenous c-Myc is not essential for reprogramming, omission of it reduces reprogramming efficiency and delays the process (23, 30). The individual PB-MSCV-cDNA vectors were co-transfected with a PB transposase plasmid into MEFs (FIG. 1A). PB transposition facilitates efficient integration of the PB transposon into the genome, thus ensuring stable expression of the cDNAs (31).
as §1
MEFs were prepared from 12.5 d.p.c. Oct4-IRES-Puro-Egfp embryos. To reduce embryo-to-embryo difference, MEFs from several embryos with the same genotype were mixed together for expansion in M10 media. MEFs were passaged once before they were counted, aliquoted and frozen down. Before electroporation, 1×10^6 MEFs were plated onto one gelatinized 15-cm tissue culture plate. When MEFs were 70-80% confluent, they were typsinized and collected for electroporation. M10: knockout DMEM, 10% foetal bovine serum (FBS, Hyclone), 1×GPS, 1× non-essential amino acids (NEAA, Invitrogen).
MEFs transfection was performed using an Amaxa machine (Lonza) according to the manufacturer's protocol (program A-023). After electroporation, MEFs were seeded in M15 plus LIF on STO feeders. For Tet-On experiments, M15 containing Doxycycline (1.0 μg/ml) was added 24 hours after transfection and was changed every other day. iPSC colonies were usually picked at day 7 to day 10 to 96 well plates and cells were expanded according to standard mouse ES cell culture conditions.
Mouse and human iPSC colonies were visualized by alkaline phosphatase staining using the Leukocyte Alkaline Phosphatase kit (Sigma).
FIG. 1. RA signalling in reprogramming. A. Schematic of the reprogramming strategy by piggyBac (PB) transposition. Oct4 reporter MEFs were transfected with the PB-MSCV-cDNA transposon and transposase plasmids, and were plated directly onto STO feeders. ES-like colonies usually appeared in three weeks. M10 and M15 are media for MEFs and ES cells, respectively. B-C. Expressing Rara or Rarg, together with the four Yamanaka factors, drastically promoted reprogramming while inhibiting RA signalling by expressing Rara-DN blocked reprogramming. iPSC colonies were visualized by alkaline phosphatase staining. The reprogramming control was PB-PGK-Neo plus Yamanaka factors. **: P<0.005; ***: P<0.0005. FL: full-length cDNA; DN: dominant-negative form. D. Temporal requirement of RA signalling in reprogramming. Agonist of Rarg (CD437) was added at various stages of reprogramming. […]

[4] = tested on: Dox-independent human iPSCs; assay: Signalling dependency of human iPSCs (growth, qRT-PCR); type: cell-based; settings: KSR-2i-LIF media
Procedure: In contrast to dependence on Lif/Jak/Stat pathway for pluripotency maintenance in mouse ES cells, conventional human ES cells derived from embryos are cultured in media containing FGF2 (basic FGF), and LIF alone is insufficient to maintain pluripotency (44, 45). […] Conventional human ES cells are resistant to JAK inhibitor (JAKi) but are differentiated in the presence of BMP4. […] Finally, compared to human ES cells, our human iPSCs expressed lower levels of lineage specific genes such as PAX6, GATA6, and SOX17 in KSR-2i-LIF media (FIG. 5H).
Human iPSCs reprogrammed by PB-CAG vectors were cultured in M15 media, with […] human recombinant LIF. Human iPSCs reprogrammed by PB-TRE vectors were maintained in DMEM/F12 with 1×GPS (Invitrogen), 20% Knockout Serum Replacement (Invitrogen), 1×NEAA, 0.1 mM β-mercaptoethanol (β-ME, Sigma) and two inhibitors, CHIR99021 (5 μM) and PD0325901 (1 μM).
RNA was isolated using the RNeasy Mini Kit (Qiagen). The samples were subsequently quantified and treated with gDNA WipeOut. First-strand cDNA was prepared using the QuantiTect Reverse Transcription Kit (Qiagen). For each RT-PCR reaction, we used 50-100 ng of cDNA and primers listed in Supplementary Table 5. Standard PCR conditions were: 94° C. for 30 s, 60° C. for 30 s, 68° C. for 30 s; X 30 cycles. For real-time PCR, we used Taqman Gene Expression Assays. Taqman probes were either purchased from Applied Biosciences (Supplementary Table 6). All quantitative PCR was performed in a […] Fast Real-Time PCR System (Applied Biosciences). Mouse gene expression was determined relative to mouse Gadph using the ΔCt method. Human gene expression was determined relative to human GADPH gene using the ΔCt method.
FIG. 5. Production and characterization of Dox-independent unique human iPSCs. A. Conservation of RAREoct sequence in several mammalian species. B. Reprogramming HDFn cells using the Tet-On six-factor platform. PB-TRE-cDNA transposon, PB-CAG-rtTA and transposase plasmids were transfected into HDFs which were plated onto STO feeders. Dox (2.0 μg/ml) was added 24 hours post transfection. Dox induction usually lasted for 15-20 days. Colonies were picked for expansion at up to 30 days after transfection. Alternatively, immediately once Dox was removed, colonies were trypsinized and re-plated to a new feeder plate for secondary colony formation. C. Typical human iPSC colony morphology and AP staining. Scale bars: 10.0 μm. D. qRT-PCR analysis of pluripotency genes in parental HDFn, human iPSCs and H1 hESC cells. HiPS15-5 and -10 were two Dox-independent iPSC lines generated from one transfection. […] H. Signalling dependency of human iPSCs measured by gene expression (qRT-PCR). […] Quantitative analysis of gene expression was performed relative to GADPH. […]

With COCCOCOc1cc2ccc(-c3ccc(C(=O)O)cc3)cc2cc1C12CC3CC(CC(C3)C1)C2 [CD2665] the “quality of partially reprogrammed clones” value ([1]; 10 μM, two independent partially reprogrammed clones) was “significantly improved”, the “effect on quality of partially reprogrammed clones” value ([1]; 10 μM, used together with 5-Aza) was “more obvious” and the “GFP status of partially reprogrammed clones” value ([1]; after treatment for 4 days, with or without 5-Aza) was “largely GFP negative”. The “ES cell differentiation induced by RA” value [2] was “block ES cell differentiation”.

With CCCCCCCOc1cc2c(cc1/C(C)=C/c1ccc(C(=O)O)cc1)C(C)(C)CCS2(=O)=O [Ro-41-5253] the “ES cell differentiation induced by RA” value [2] was “block ES cell differentiation”.

With O=C(O)c1ccc2cc(-c3ccc(O)c(C45CC6CC(CC(C6)C4)C5)c3)ccc2c1 [CD437] the “iPS cell colony number” value ([3]; 100 nM for up to eight day, with four Yamanaka factors) was “greatly increased”, the “reprogramming of MEFs to iPSCs” value ([3]; added to culture media at recommended concentration for 4 or 8 days, with four Yamanaka factors) was “drastically increased” and the iPS colony number ([3]; treatment beyond 8 days (day 1-12)) was “substantially reduced”. For the same compound, the reprogramming efficiency ([3]; treatment beyond 8 days after transfection) was “reduced reprogramming efficiency”, the “GFP expression from the Oct4 locus in colonies (iPSC quality)” value ([1]; CD437 day 1-4) was “expressed GFP; also recorded: Improvement of iPSC quality” and the “survival of Puro selection” value ([1]; CD437 day 1-4, 2.0 μg/ml Puro) was “survived 2.0 μg/ml Puro selection”. The “quality of iPS cells, measured by FACS” value [1] was “significantly improved”.

With CC1(C)CCC(C)(C)c2cc(C(=O)Nc3ccc(C(=O)O)cc3)ccc21 [Am580] the reprogramming efficiency ([3]; administrated for 8 days, with four Yamanaka factors) was “improved reprogramming efficiency” and the “quality of iPS cells, measured by FACS” value [1] was “little effect”.

In the case of BMP4: BMP4 added to human iPSC culture, the “growth and pluripotency gene expression of human iPSCs in the presence of the agent” value (“growth and pluripotency gene expression” below) [4] was “proliferated well”.

With Cc1c[nH]c(/C=C2\C(=O)Nc3ccccc32)c1CCC(=O)O [SU54021] the “growth and pluripotency gene expression” value [4] was “grew well and kept pluripotency gene expression” and the “growth and pluripotency gene expression” value ([4]; listed as FGFRi) was “Robust expression of pluripotency genes”.

CC(C)(C)c1nc2c3cc[nH]c(=O)c3c3cc(F)ccc3c2[nH]1 [JAK inhibitor] was tested, and the “growth and pluripotency gene expression” value [4] was “lost expression of OCT4 and NANOG and were rapidly differentiated”.
